Measurements: ChEMBL document CHEMBL4325859, “Research advances on anticancer activities of matrine and its derivatives: An updated overview” (Eur J Med Chem, 2019)
Values after ≈ are worked out from the molar mass of the structure shown.

Columns and labels:
U-266 [1] = assay: Antiproliferative activity against human U266 cells after 48 hrs by MTT assay; format: functional, cell-based; conditions: U-266, 48 h
PANC-1 [2] = assay: Antiproliferative activity against human PANC1 cells by MTT assay; format: functional, cell-based
[3] = Growth inhibition of human GRC1 cells at 1.5 g/L after 48 hrs by MTT assay relative to control; format: functional; conditions: read-out: GI
HOS-TE85 = assay: Growth inhibition of human MNNG-HOS cells after 48 hrs by MTT assay; format: functional, cell-based; conditions: HOS-TE85, 48 h
HepG2 [4] = assay: Antiproliferative activity against human HepG2 cells by MTT assay; format: functional, cell-based
[5] = Growth inhibition of human GRC1 cells at 0.8 g/L after 96 hrs by MTT assay relative to control; format: functional; conditions: read-out: GI
C-33-A = assay: Induction of apoptosis in human C33A cells at 25 ug/ml after 48 hrs by Annexin V-FITC/propidium iodide staining based flow cytometry relative to control; format: functional
HT-29 [6] = assay: Growth inhibition of human HT-29 cells at 1 mg/ml by MTT assay relative to control; format: functional; conditions: read-out: GI
A549 = assay: Antiproliferative activity against human A549 cells at 1 mg/ml relative to control; format: functional
[7] = Growth inhibition of human GRC1 cells at 1 g/L after 48 hrs by MTT assay relative to control; format: functional; conditions: read-out: GI
U2OS = assay: Growth inhibition of human U2OS cells at 3.2 mg/ml after 48 hrs by MTT assay relative to control; format: functional; conditions: read-out: GI
HT-29 [8] = assay: Growth inhibition of human HT-29 cells at 0.25 mg/ml by MTT assay relative to control; format: functional; conditions: read-out: GI
SGC-7901 = assay: Induction of apoptosis in human SGC7901 cells at […] after 48 hrs by propidium iodide staining based flow cytometry (reference value: 3.54 +/- 0.47%); format: functional
RPMI-8226 = assay: Growth inhibition of human RPMI8226 cells after 24 hrs; format: functional, cell-based; conditions: RPMI-8226, 24 h
PC-3 [9] = assay: Induction of apoptosis in human PC3 cells assessed as late apoptotic cells at 25 mg/mL (reference value: 2.5%); format: functional
KYSE-150 cell line [10] = assay: Antiproliferative activity against human KYSE-150 cells assessed as cell viability at 0.5 mg/ml after 24 hrs by MTT assay relative to control; format: functional; conditions: KYSE-150, 24 h, read-out: Activity
D341 cell line [11] = assay: Growth inhibition of human D341 cells at 2 mg/ml after 48 hrs by CCK8 assay relative to control; format: functional; conditions: D341, 48 h, read-out: GI
HeLa [12] = assay: Induction of apoptosis in human HeLa cells at 50 ug/ml after 48 hrs by Annexin V-FITC/propidium iodide staining based flow cytometry relative to control; format: functional
SMMC-7721 = assay: Antiproliferative activity against human SMMC7721 cells at 200 ug/ml after 72 hrs by MTT assay relative to control; format: functional
[13] = biological target: ATP-dependent translocase ABCB1 (Homo sapiens, UniProt P08183); assay: Reversal of P-gp-mediated drug resistance in human MCF7/ADR cells assessed as increase in adriamycin accumulation at 0.2 mg/ml relative to control; format: cell-based
Sequence of ATP-dependent translocase ABCB1 (P08183 whole entry): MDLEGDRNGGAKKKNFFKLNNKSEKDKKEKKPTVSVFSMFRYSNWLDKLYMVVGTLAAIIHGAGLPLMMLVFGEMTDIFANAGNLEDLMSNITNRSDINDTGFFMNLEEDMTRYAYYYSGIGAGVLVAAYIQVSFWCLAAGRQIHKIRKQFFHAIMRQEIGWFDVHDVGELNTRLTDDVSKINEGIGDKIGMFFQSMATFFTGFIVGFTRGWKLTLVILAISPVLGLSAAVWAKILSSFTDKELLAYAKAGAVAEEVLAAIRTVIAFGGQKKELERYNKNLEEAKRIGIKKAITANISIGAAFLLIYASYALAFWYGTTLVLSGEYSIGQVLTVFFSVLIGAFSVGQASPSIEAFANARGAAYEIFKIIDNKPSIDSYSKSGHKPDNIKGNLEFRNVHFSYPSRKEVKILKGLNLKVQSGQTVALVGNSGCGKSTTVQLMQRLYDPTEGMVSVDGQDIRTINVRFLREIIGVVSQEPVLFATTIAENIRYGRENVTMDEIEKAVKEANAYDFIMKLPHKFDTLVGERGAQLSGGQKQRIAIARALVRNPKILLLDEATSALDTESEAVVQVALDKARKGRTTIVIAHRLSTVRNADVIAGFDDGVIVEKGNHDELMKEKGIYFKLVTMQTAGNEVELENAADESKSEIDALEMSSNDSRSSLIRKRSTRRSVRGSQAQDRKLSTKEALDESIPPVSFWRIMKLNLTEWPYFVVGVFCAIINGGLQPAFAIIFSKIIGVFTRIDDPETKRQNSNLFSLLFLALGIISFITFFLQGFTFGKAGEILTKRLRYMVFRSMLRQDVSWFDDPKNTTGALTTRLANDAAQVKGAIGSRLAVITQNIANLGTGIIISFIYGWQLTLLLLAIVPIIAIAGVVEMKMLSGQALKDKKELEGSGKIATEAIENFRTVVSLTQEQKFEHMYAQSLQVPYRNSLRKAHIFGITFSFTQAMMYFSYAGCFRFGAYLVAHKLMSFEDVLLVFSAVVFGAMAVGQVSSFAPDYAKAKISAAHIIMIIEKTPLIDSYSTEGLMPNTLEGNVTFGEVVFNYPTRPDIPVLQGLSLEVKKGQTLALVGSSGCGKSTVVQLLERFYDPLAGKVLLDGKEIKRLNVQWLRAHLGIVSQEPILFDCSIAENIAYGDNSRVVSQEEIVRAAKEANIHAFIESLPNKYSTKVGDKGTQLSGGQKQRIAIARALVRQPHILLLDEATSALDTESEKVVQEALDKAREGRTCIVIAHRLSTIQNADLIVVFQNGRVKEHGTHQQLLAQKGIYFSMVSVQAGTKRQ

UMR108 [14] = assay: Growth inhibition of rat UMR108 cells assessed as cell proliferation at 0.5 mg/ml after 48 hrs by MTT assay (reference value: 0.404 +/- 0.008%); format: functional; conditions: UMR108, 48 h, read-out: Activity
KYSE-150 cell line [15] = assay: Antiproliferative activity against human KYSE-150 cells assessed as cell viability at 2.5 mg/ml after 24 hrs by MTT assay relative to control; format: functional; conditions: KYSE-150, 24 h, read-out: Activity
[16] = Antiproliferative activity against human 95-D cells at 1.5 g/L after 12 to 48 hrs by MTT assay relative to control; format: functional
PC-3 [17] = assay: Growth inhibition of human PC3 cells at 6 g/L after 72 hrs relative to control; format: functional; conditions: PC-3, 72 h, read-out: GI
HepG2 [18] = assay: Antiproliferative activity against human HepG2 cells after 48 hrs by MTT assay; format: functional, cell-based; conditions: HepG2, 48 h
D341 cell line [19] = assay: Growth inhibition of human D341 cells at 1.5 mg/ml after 72 hrs by CCK8 assay relative to control; format: functional; conditions: D341, 72 h, read-out: GI
HeLa [20] = assay: Induction of apoptosis in human HeLa cells at 25 ug/ml after 48 hrs by Annexin V-FITC/propidium iodide staining based flow cytometry relative to control; format: functional
PC-3 [21] = assay: Induction of apoptosis in human PC3 cells assessed as late apoptotic cells at 75 mg/mL (reference value: 2.5%); format: functional
MM1.S = assay: Growth inhibition of human MM1S cells after 24 hrs; format: functional, cell-based
CCRF-CEM = assay: Antiproliferative activity against human CCRF-CEM cells after 72 hrs by WST1 assay; format: functional, cell-based
HT-29 [22] = assay: Growth inhibition of human HT-29 cells at 0.5 mg/ml by MTT assay relative to control; format: functional; conditions: read-out: GI
MCF7 = assay: Antiproliferative activity against human MCF7 cells after 48 hrs relative to control; format: functional
PANC-1 [23] = assay: Induction of apoptosis in human PANC1 cells at 0.25 mg/ml by flow cytometry (reference value: 4.13%); format: functional
NB-4 = assay: Antiproliferative activity against human NB4 cells after 24 hrs by MTT assay; format: functional, cell-based; conditions: NB-4, 24 h
T-24 = assay: Antiproliferative activity against human T24 cells after 48 hrs by CCK8 assay; format: functional, cell-based; conditions: T-24, 48 h
U-266 [24] = assay: Induction of apoptosis in human U266 cells at 2 g/L after 48 hrs by Annexin V-FITC/propidium iodide staining based flow cytometry (Rvb < 3%); format: functional
UMR108 [25] = assay: Growth inhibition of rat UMR108 cells assessed as cell proliferation at 1 mg/ml after 72 hrs by MTT assay (reference value: 0.403 +/- 0.009%); format: functional; conditions: UMR108, 72 h, read-out: Activity
HT-29 [26] = assay: Growth inhibition of human HT-29 cells at 16 ml/L after 24 hrs by MTT assay relative to control; format: functional
[27] = Growth inhibition of human MM1R cells after 24 hrs; format: functional; conditions: MM.1R
HT-29 [28] = assay: Synergistic growth inhibition of human HT-29 cells at 2 mg/ml cotreated with 10 ug/ml irinotecan by MTT assay relative to control; format: functional
BXPC-3 = assay: Antiproliferative activity against human BxPC3 cells after 72 hrs by MTT assay; format: functional, cell-based; conditions: BXPC-3, 72 h
4T1 = assay: Antiproliferative activity against mouse 4T1 cells after 48 hrs by MTT assay; format: functional, cell-based; conditions: 4T1, 48 h
MG-63 = assay: Growth inhibition of human MG63 cells at 0.8 mg/ml after 48 hrs by MTT assay relative to control; format: functional; conditions: MG-63, 48 h, read-out: GI
UMR108 [29] = assay: Growth inhibition of rat UMR108 cells assessed as cell proliferation at 1.5 mg/ml after 48 hrs by MTT assay (reference value: 0.404 +/- 0.008%); format: functional; conditions: UMR108, 48 h, read-out: Activity
HT-29 [30] = assay: Growth inhibition of human HT-29 cells at 2 ml/L after 24 hrs by MTT assay relative to control; format: functional

Work on `O=C1CCC[C@@H]2[C@H]3CCCN4CCC[C@@H](CN12)[C@@H]34` [MATRINE] yielded an IC50 (U-266 [1]) of 1580 µg/mL (≈ 6.36 mM), an IC50 (PANC-1 [2]) of 0.0286 mM and an inhibition of growth at 1500 µg/mL [3] of 32%. It also gave an IC50 (HOS-TE85) of 3.1 mM, an IC50 (HepG2 [4]) of 8.07 mM and an inhibition of growth at 800 µg/mL [5] of 36.2%. For the same compound, the Activity (C-33-A) was 5.31%, the inhibition of growth at 1000 µg/mL (HT-29 [6]) was 35.9% and the Activity (A549) was 52.68%. The inhibition of growth at 1000 µg/mL [7] was 25.4%, the inhibition of growth at 3200 µg/mL (U2OS) was 77% and the inhibition of growth at 250 µg/mL (HT-29 [8]) was 12.2%. It also gave an Activity (SGC-7901) of 34.59%, an IC50 (RPMI-8226) of 4.35 mM and an Activity (PC-3 [9]) of 14.6%. The viability at 500 µg/mL (KYSE-150 cell line [10]) was 82.2%, the inhibition of growth at 2000 µg/mL (D341 cell line [11]) was 47.2% and the Activity (HeLa [12]) was 19.53%. The Activity (SMMC-7721) was 77.4%, the “fold change (FC)” value [13] was 3.56 and the growth at 500 µg/mL (UMR108 [14]) was 0.313%. For the same compound, the viability at 2500 µg/mL (KYSE-150 cell line [15]) was 40.4%, the Activity [16] was 30% and the inhibition of growth at 6000 µg/mL (PC-3 [17]) was 90%. It also gave an IC50 (HepG2 [18]) of 3.22 mM, an inhibition of growth at 1500 µg/mL (D341 cell line [19]) of 47.5% and an Activity (HeLa [20]) of 8.91%. The Activity (PC-3 [21]) was 15.1%, the IC50 (MM1.S) was 4.95 mM and the IC50 (CCRF-CEM) was 9.63 mM. The inhibition of growth at 500 µg/mL (HT-29 [22]) was 26.9%, the Activity (MCF7) was 7.56 - 53.92% and the Activity (PANC-1 [23]) was 8.71%. For the same compound, the IC50 (NB-4) was 0.00266 mM, the IC50 (T-24) was 4.6 mM and the Activity (U-266 [24]) was 71.05%. The growth at 1000 µg/mL (UMR108 [25]) was 0.195%, the “growth inhibition (GI)” value (HT-29 [26]) was 59.35% and the IC50 [27] was 5.4 mM. For the same compound, the “growth inhibition (GI)” value (HT-29 [28]) was 95.29%, the IC50 (BXPC-3) was 2.94 mM and the IC50 (4T1) was 1110 µg/mL (≈ 4.47 mM). For the same compound, the inhibition of growth at 800 µg/mL (MG-63) was 20%, the growth at 1500 µg/mL (UMR108 [29]) was 0.205% and the “growth inhibition (GI)” value (HT-29 [30]) was 9.2%.
